Assay results taken from US20260294906A1, “TREATING PSORIASIS USING A SMALL MOLECULE INHIBITOR OF TUMOR NECROSIS FACTOR ALPHA” (SANOFI, priority 2023, published 2026).
Entries after “also recorded” stand apart in the source; their conditions may differ.

Experiments:
Assay type in all cases: in vivo, human
[1] = system: participants with mild to moderate psoriasis; assay: Adverse events and safety in the clinical study
Description: A double-blind, randomized, placebo-controlled phase 1 study was carried out in participants with mild to moderate psoriasis. Study participants were randomized to 200 mg twice a day (BID) of Compound 1 or placebo in 2:1 ratio (approximately 24 in the treatment group and 12 in the placebo group). The study comprised an up to 4-week screening period, and a 4-week treatment period with Compound 1 or placebo. An end-of-study visit was carried out 10±3 days after the last investigational medicinal product (IMP) administration.
(§1) The primary objective of the study was to assess the safety, tolerability, and clinical efficacy of Compound 1 at 200 mg BID via oral administration. Also evaluated was the clinical effect of Compound 1 as compared to placebo on the percent change in PASI and TLS scores from baseline to week 2 and week 4. The percent change in PASI score from baseline to week 4 was determined. TLS score was also assessed over the same time period. Also assessed was the effect of Compound 1 on biomarkers of psoriasis. Blood samples collected at predetermined time points were processed to quantify serum levels of biomarkers, including interleukin (IL)-17A, IL-17F, and IL-22 by high sensitivity methods. IL-17A, IL-17F and IL-22 are the main cytokines released by Th17 cells. Plasma levels of Compound 1 were measured to assess pharmacokinetics in the study population.
(§2) Two study interventions were used, Compound 1 and placebo. The Compound 1 intervention comprised 4× tablets of Compound 1 50 mg twice daily, i.e. 200 mg BID, for 4 weeks. The placebo intervention was 4× tablets of placebo twice daily for 4 weeks. Tablets were administered orally.
Adverse events (AEs) were reported by the participant or observed by the Investigator, and were defined as follows: • An AE is any untoward medical occurrence in a patient or clinical study participant, temporally associated with the use of study intervention, whether or not considered related to the study intervention. • NOTE: An AE can therefore be any unfavorable and unintended sign (including an abnormal laboratory finding), symptom, or disease (new or exacerbated) temporally associated with the use of study intervention.
Events meeting the AE definition: • Any abnormal laboratory test results (hematology, clinical chemistry, or urinalysis) or other safety assessments (e.g., ECG, radiological scans, vital signs measurements), including those that worsen from baseline, considered clinically significant in the medical and scientific judgment of the Investigator (i.e., not related to progression of underlying disease), e.g.: • Symptomatic and/or • Requiring either corrective treatment or consultation, and/or • Leading to IMP discontinuation or modification of dosing, and/or • Fulfilling a seriousness criterion, and/or • Defined as an AESI • Exacerbation of a chronic or intermittent pre-existing condition including either an increase in frequency and/or intensity of the condition. • New condition detected or diagnosed after study intervention administration even though it may have been present before the start of the study. • Signs, symptoms, or the clinical sequelae of a suspected drug-drug interaction. • Signs, symptoms, or the clinical sequelae of a suspected overdose of either study intervention or a concomitant medication. • Lack of efficacy or failure of expected pharmacological action per se will not be reported as an AE or SAE. Such instances will be captured in the efficacy assessments. However, the signs, symptoms, and/or clinical sequelae resulting from lack of efficacy will be reported as AE or SAE if they fulfill the definition of an AE or SAE.
Complications that occur during hospitalization are AEs. If a complication prolongs hospitalization or fulfills any other serious criteria, the event is serious. […]

[2] = system: IL-17A; assay: Serum levels of biomarker IL-17A (single molecule counting sandwich immunoassay)
Description: as §1, §2
(§3) Blood samples were processed for analysis of IL-17A, IL-17F and IL-22 in serum samples by high sensitivity methods. Samples were collected according to the schedule of activity described above.
(§4) As indicated above, peripheral blood samples collected at predetermined time points were processed to quantify serum levels of biomarkers of psoriasis including IL-17A, IL-17F, and IL-22. Levels of IL-17A and IL-17F were quantified using a single molecule counting sandwich immunoassay (SMCxPro™, Millipore—see also Hwang et al., Methods (2019) 158:69-76). Levels of IL-22 were quantified using a single-molecule array ELISA (SIMOA™, Myriad RBM—see also Rissin et al., Anal Chem (2011) 83(6):2279-2285). Statistical analysis was based on geometric mean ratio to baseline; a two-sample t-test at significance alpha level of 5% was used for calculation of the p-values.

[3] = system: IL-22; assay: Serum levels of biomarker IL-22 (single-molecule array ELISA)
Description: as §1, §2, §3, §4

[4] = 200 mg BID, N = 26, placebo 33.3%

For `CN1C(=O)c2cccc(OC(F)F)c2[C@H]2C[C@@H]1c1nc3ccc(-c4cnc(C5(N)CCC5)nc4)cc3n12` [Compound 1, (7R,14R)-11-[2-(1-aminocyclobutyl)pyrimidin-5-yl]-1-(difluoromethoxy)-6-methyl-6,7-dihydro-7,14-methanobenzimidazo[1,2-b][2,5]benzodiazocin-5(14H)-one], the “safety and tolerability (in words)” value ([1]; 200 mg BID over 28 days) was “safe and well-tolerated”, the “serious AEs (SAEs), severe TEAEs or AEs of special interest (AESI)” value ([1]; 200 mg BID, 4 weeks) was “no serious AEs (SAEs), severe TEAEs or AEs of special interest (AESI); also recorded: no serious AEs, severe treatment emergent AEs, or AESI being reported; also recorded: No serious or severe adverse events were observed” and the “Number of TEAEs leading to permanent study intervention discontinuation” value ([1]; 200 mg BID, 2 participants) was 2. The “drop-out due to CPK increase” value ([1]; 200 mg BID, Day 8, linked to increased physical activity) was “another participant dropped out on Day 8 due to CPK increase (grade 2) assessed by the investigator as non-drug related”, the “drop-out due to nausea” value ([1]; 200 mg BID, Day 15) was “one participant dropped out on Day 15 due to nausea assessed by the investigator as drug related” and the “Number of participants with Dysgeusia (PT)” value ([1]; 200 mg BID, N = 26, placebo 0) was 16. For the same molecule, the “% of participants with Dysgeusia (PT)” value ([1]; 200 mg BID, N = 26, placebo 0%) was 61.5%, the “Number of participants with gastrointestinal disorders (SOC)” value ([1]; 200 mg BID, N = 26, placebo 2) was 8 and the “Number of participants with headache (PT)” value ([1]; 200 mg BID, N = 26, placebo 4) was 8. For the same molecule, the “Number of participants with infections and infestations (SOC)” value ([1]; 200 mg BID, N = 26, placebo 4) was 4, the “Number of participants with nervous systems disorders (SOC)” value ([1]; 200 mg BID, N = 26, placebo 4) was 19 and the “% of participants with gastrointestinal disorders (SOC)” value ([1]; 200 mg BID, N = 26, placebo 16.7%) was 30.8%. For the same molecule, the “% of participants with headache (PT)” value [1, 4] was 30.8%, the “% of participants with infections and infestations (SOC)” value [1, 4] was 15.4% and the “% of participants with nervous systems disorders (SOC)” value [1, 4] was 73.1%. The “severity of TEAEs” value ([1]; 200 mg BID, NCI-CTCAE grades) was “All TEAEs were of grade 1 or grade 2 severity and participants fully recovered”, the “time for CPK value to return to baseline level” value ([1]; 200 mg BID, one participant, CPK increase grade 2) was 7 days and the “% of participants with treatment-emergent adverse events (TEAEs)” value ([1]; 26 participants, 200 mg BID, 4 weeks, placebo 58.3%) was 92.3%. For the same molecule, the “Number of participants with treatment-emergent adverse events (TEAEs)” value ([1]; out of 26 participants, 200 mg BID, 4 weeks, placebo 7 of 12) was 24, the “PCSA for vital signs, ECG and laboratory parameters (in words)” value ([1]; scattered across placebo and Compound 1 groups) was “no safety concerns based on vital signs, ECG or laboratory results; also recorded: All were considered not clinically meaningful by the investigator” and the “Serum level of IL-17A (in words)” value ([2]; after treatment for 4 weeks) was “substantially decreased”. The “Serum level of IL-17A, geometric mean (geometric SE)” value ([2]; baseline (before treatment)) was 0.62 (1.15) pg/mL, the “Serum level of IL-17A, geometric mean (geometric SE)” value ([2]; week 2, 200 mg BID) was 0.56 (1.13) pg/mL and the “Serum level of IL-17A, geometric mean (geometric SE)” value ([2]; week 4, 200 mg BID) was 0.45 (1.14) pg/mL. For the same molecule, the “Serum level of IL-22 (in words)” value ([3]; after treatment for 4 weeks) was “substantially decreased”, the “Serum level of IL-22, geometric mean (geometric SE)” value ([3]; baseline (before treatment)) was 4.13 (1.19) pg/mL and the “Serum level of IL-22, geometric mean (geometric SE)” value ([3]; week 2, 200 mg BID) was 2.86 (1.18) pg/mL. For the same molecule, the “Serum level of IL-22, geometric mean (geometric SE)” value ([3]; week 4, 200 mg BID) was 2.49 (1.15) pg/mL.
